Assay results taken from patent publication US20260027116A1, “Methods of Treating Chronic Graft-Versus-Host Disease Following Allogeneic Hematopoietic Stem Cell Transplantation” (Kadmon Corporation, LLC, priority 2022, published 2026).

How the values were obtained:
[1] = test system: chronic graft-versus-host disease (cGVHD); experiment: Example 2 phase II randomized study: response per 2014 NIH criteria (best ORR, DOR, TTR, FFS, OS); assay type: in vivo, human; conditions: for ORR / ORR for responses occurring within 6 mo of treatment / ORR for responses occurring within 12 mo of treatment: mITT
Experimental: All responses were assessed by the study site investigators.
Here, we report data from the 12-month analysis.

BCRP = biological target: T1, BCRP (Homo sapiens, UniProt Q9UNQ0); experiment: transporter inhibition in vitro; assay type: in vitro ADME; conditions: at clinically relevant concentrations
T1 sequence (Q9UNQ0 1-655): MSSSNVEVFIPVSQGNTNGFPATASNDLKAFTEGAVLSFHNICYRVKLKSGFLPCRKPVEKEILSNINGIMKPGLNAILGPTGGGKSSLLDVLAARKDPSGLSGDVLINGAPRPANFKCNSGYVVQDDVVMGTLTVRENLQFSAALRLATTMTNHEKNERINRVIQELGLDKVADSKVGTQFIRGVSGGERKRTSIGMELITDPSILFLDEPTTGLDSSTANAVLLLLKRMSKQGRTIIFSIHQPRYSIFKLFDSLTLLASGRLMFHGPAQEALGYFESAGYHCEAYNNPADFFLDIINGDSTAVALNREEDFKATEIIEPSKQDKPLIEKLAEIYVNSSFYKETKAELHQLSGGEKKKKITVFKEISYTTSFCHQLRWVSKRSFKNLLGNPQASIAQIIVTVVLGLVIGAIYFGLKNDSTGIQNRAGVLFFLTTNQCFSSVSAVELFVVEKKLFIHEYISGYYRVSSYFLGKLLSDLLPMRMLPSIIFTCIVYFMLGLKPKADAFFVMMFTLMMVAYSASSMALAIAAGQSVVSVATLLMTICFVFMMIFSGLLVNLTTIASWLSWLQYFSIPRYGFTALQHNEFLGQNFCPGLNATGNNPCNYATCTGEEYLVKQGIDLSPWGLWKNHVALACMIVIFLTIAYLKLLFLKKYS

[2] = responses within 6 mo of treatment, 200 mg daily (n = 66)
[3] = responses within 6 mo of treatment, 200 mg twice daily (n = 66)
[4] = responses within 6 mo of treatment, Total (N = 132)
[5] = responses within 12 mo of treatment, 200 mg daily (n = 66)
[6] = responses within 12 mo of treatment, 200 mg twice daily (n = 66)
[7] = responses within 12 mo of treatment, Total (N = 132)

CC(C)NC(=O)COc1cccc(-c2nc(Nc3ccc4[nH]ncc4c3)c3ccccc3n2)c1 [Belumosudil, 2-{3-[4-(1H-indazol-5-ylamino)-2-quinazolinyl]phenoxy}-N-(propan-2-yl) acetamide]
CR, Esophagus ([1]; 200 mg BID): 5 (42) n (%)
CR, Eyes ([1]; 200 mg BID): 6 (12) n (%)
CR, Joints and fascia ([1]; 200 mg BID): 10 (20) n (%)
CR, Liver ([1]; 200 mg BID): 2 (50) n (%)
CR, Lower GI ([1]; 200 mg BID): 4 (57) n (%)
CR, Lungs ([1]; 200 mg BID): 2 (9) n (%)
CR, Mouth ([1]; 200 mg BID): 17 (41) n (%)
CR, Skin ([1]; 200 mg BID): 10 (18) n (%)
CR, Upper GI ([1]; 200 mg BID): 4 (40) n (%)
ORR, Esophagus ([1]; 200 mg BID): 5 (42) n (%)
ORR, Eyes ([1]; 200 mg BID): 25 (51) n (%)
ORR, Joints and fascia ([1]; 200 mg BID): 33 (67) n (%)
ORR, Liver ([1]; 200 mg BID): 2 (50) n (%)
ORR, Lower GI ([1]; 200 mg BID): 5 (71) n (%)
ORR, Lungs ([1]; 200 mg BID): 5 (22) n (%)
ORR, Mouth ([1]; 200 mg BID): 24 (57) n (%)
ORR, Skin ([1]; 200 mg BID): 23 (42) n (%)
ORR, Upper GI ([1]; 200 mg BID): 4 (40) n (%)
PR, Esophagus ([1]; 200 mg BID): 0 n (%)
PR, Eyes ([1]; 200 mg BID): 19 (39) n (%)
PR, Joints and fascia ([1]; 200 mg BID): 23 (47) n (%)
PR, Liver ([1]; 200 mg BID): 0 n (%)
PR, Lower GI ([1]; 200 mg BID): 1 (14) n (%)
PR, Lungs ([1]; 200 mg BID): 3 (13) n (%)
PR, Mouth ([1]; 200 mg BID): 7 (17) n (%)
PR, Skin ([1]; 200 mg BID): 13 (24) n (%)
PR, Upper GI ([1]; 200 mg BID): 0 n (%)
CR, Esophagus ([1]; 200 mg QD): 9 (47) n (%)
CR, Eyes ([1]; 200 mg QD): 8 (17) n (%)
CR, Joints and fascia ([1]; 200 mg QD): 10 (20) n (%)
CR, Liver ([1]; 200 mg QD): 2 (22) n (%)
CR, Lower GI ([1]; 200 mg QD): 4 (67) n (%)
CR, Lungs ([1]; 200 mg QD): 4 (17) n (%)
CR, Mouth ([1]; 200 mg QD): 15 (50) n (%)
CR, Skin ([1]; 200 mg QD): 8 (15) n (%)
CR, Upper GI ([1]; 200 mg QD): 7 (54) n (%)
ORR, Esophagus ([1]; 200 mg QD): 9 (47) n (%)
ORR, Eyes ([1]; 200 mg QD): 16 (33) n (%)
ORR, Joints and fascia ([1]; 200 mg QD): 38 (75) n (%)
ORR, Liver ([1]; 200 mg QD): 3 (33) n (%)
ORR, Lower GI ([1]; 200 mg QD): 4 (67) n (%)
ORR, Lungs ([1]; 200 mg QD): 7 (29) n (%)
ORR, Mouth ([1]; 200 mg QD): 16 (53) n (%)
ORR, Skin ([1]; 200 mg QD): 18 (33) n (%)
ORR, Upper GI ([1]; 200 mg QD): 8 (62) n (%)
PR, Esophagus ([1]; 200 mg QD): 0 n (%)
PR, Eyes ([1]; 200 mg QD): 8 (17) n (%)
PR, Joints and fascia ([1]; 200 mg QD): 28 (55) n (%)
PR, Liver ([1]; 200 mg QD): 1 (11) n (%)
PR, Lower GI ([1]; 200 mg QD): 0 n (%)
PR, Lungs ([1]; 200 mg QD): 3 (13) n (%)
PR, Mouth ([1]; 200 mg QD): 1 (3) n (%)
PR, Skin ([1]; 200 mg QD): 10 (18) n (%)
PR, Upper GI ([1]; 200 mg QD): 1 (8) n (%)
FFS at 6 mo (95% CI) ([1]; 200 mg daily (n = 66)): 73 (61-83) %
FFS at 12 mo (95% CI) ([1]; 200 mg daily (n = 66)): 57 (44-68) %
FFS at 6 mo (95% CI) ([1]; 200 mg twice daily (n = 66)): 76 (63-84) %
FFS at 12 mo (95% CI) ([1]; 200 mg twice daily (n = 66)): 56 (43-67) %
2-year OS rate ([1]; Example 2): 89%
additional lung CRs based on NIH lung symptom score 1 to 0 ([1]; Example 2): 3 subjects
best ORR in subjects refractory to their last lines of therapy ([1]; Example 2): 75%
initiation of a new systemic cGVHD therapy (failure event) ([1]; Example 2): 38%
lung CR based on normalization of FEV1 ([1]; Example 2): 3 subjects
median FEV1 increase for all subjects achieving lung PR ([1]; Example 2): 10%
median FEV1 increase in lung CR subjects ([1]; Example 2): 23%
nonrelapse mortality (NRM) ([1]; Example 2): 7%
overall median time to response ([1]; Example 2): 5 weeks
relapse ([1]; Example 2): 3%
responses seen after 6 to 12 months of treatment ([1]; Example 2): 9%
skin responders with decrease in body surface area involvement ([1]; Example 2): 15 subjects
skin responders with decrease in sclerotic features ([1]; Example 2): 11 subjects
skin responders with improvement in both body surface area and sclerotic features ([1]; Example 2): 13 subjects
subjects with lung responses ([1]; Example 2): 12 subjects
subjects with skin responses ([1]; Example 2): 41 subjects
best ORR ([1]; Example 2, 200 mg daily): 74%
best ORR ([1]; Example 2, 200 mg twice daily): 77%
overall FFS rate ([1]; Example 2, at 6 months): 75%
overall FFS rate ([1]; Example 2, at 12 months): 56%
ORRs in all subgroups ([1]; Example 2, mITT): 61-85%
best ORR in the esophagus ([1]; Example 2, mITT): 45%
best ORR in the eyes ([1]; Example 2, mITT): 42%
best ORR in the joints/fascia ([1]; Example 2, mITT): 71%
best ORR in the liver ([1]; Example 2, mITT): 39%
best ORR in the lower GI tract ([1]; Example 2, mITT): 69%
best ORR in the lungs ([1]; Example 2, mITT): 26%
best ORR in the mouth ([1]; Example 2, mITT): 55%
best ORR in the skin ([1]; Example 2, mITT): 37%
best ORR in the upper GI tract ([1]; Example 2, mITT): 52%
ORR, subgroup with prior ibrutinib therapy ([1]; Example 2, pooled arms): 74%
ORR, subgroup with prior ruxolitinib therapy ([1]; Example 2, pooled arms): 68%
median DOR ([1]; Example 2, responder population): 54 weeks
CR, Esophagus ([1]; Total): 14 (45) n (%)
CR, Eyes ([1]; Total): 14 (14) n (%)
CR, Joints and fascia ([1]; Total): 20 (20) n (%)
CR, Liver ([1]; Total): 4 (31) n (%)
CR, Lower GI ([1]; Total): 8 (62) n (%)
CR, Lungs ([1]; Total): 6 (13) n (%)
CR, Mouth ([1]; Total): 32 (44) n (%)
CR, Skin ([1]; Total): 18 (16) n (%)
CR, Upper GI ([1]; Total): 11 (48) n (%)
ORR, Esophagus ([1]; Total): 14 (45) n (%)
ORR, Eyes ([1]; Total): 41 (42) n (%)
ORR, Joints and fascia ([1]; Total): 71 (71) n (%)
ORR, Liver ([1]; Total): 5 (39) n (%)
ORR, Lower GI ([1]; Total): 9 (69) n (%)
ORR, Lungs ([1]; Total): 12 (26) n (%)
ORR, Mouth ([1]; Total): 40 (56) n (%)
ORR, Skin ([1]; Total): 41 (37) n (%)
ORR, Upper GI ([1]; Total): 12 (52) n (%)
PR, Esophagus ([1]; Total): 0 n (%)
PR, Eyes ([1]; Total): 27 (28) n (%)
PR, Joints and fascia ([1]; Total): 51 (51) n (%)
PR, Liver ([1]; Total): 1 (8) n (%)
PR, Lower GI ([1]; Total): 1 (8) n (%)
PR, Lungs ([1]; Total): 6 (13) n (%)
PR, Mouth ([1]; Total): 8 (11) n (%)
PR, Skin ([1]; Total): 23 (21) n (%)
PR, Upper GI ([1]; Total): 1 (4) n (%)
FFS at 6 mo (95% CI) ([1]; Total (N = 132)): 75 (66-81) %
FFS at 12 mo (95% CI) ([1]; Total (N = 132)): 56 (47-64) %
ORR ([1]; 200 mg daily (n = 66)): 49 (74) n (%)
ORR for responses occurring within 6 mo of treatment ([1]; 200 mg daily (n = 66)): 47 (71) n (%)
ORR for responses occurring within 12 mo of treatment ([1]; 200 mg daily (n = 66)): 49 (74) n (%)
ORR ([1]; 200 mg twice daily (n = 66)): 51 (77) n (%)
ORR for responses occurring within 6 mo of treatment ([1]; 200 mg twice daily (n = 66)): 48 (73) n (%)
ORR for responses occurring within 12 mo of treatment ([1]; 200 mg twice daily (n = 66)): 50 (76) n (%)
ORR ([1]; Total (N = 132)): 100 (76) n (%)
ORR for responses occurring within 6 mo of treatment ([1]; Total (N = 132)): 95 (72) n (%)
ORR for responses occurring within 12 mo of treatment ([1]; Total (N = 132)): 99 (75) n (%)
CR [1, 2]: 2 (3) n (%)
PR [1, 2]: 45 (68) n (%)
CR [1, 3]: 1 (2) n (%)
PR [1, 3]: 47 (71) n (%)
CR [1, 4]: 3 (2) n (%)
PR [1, 4]: 92 (70) n (%)
CR [1, 5]: 4 (6) n (%)
PR [1, 5]: 45 (68) n (%)
CR [1, 6]: 2 (3) n (%)
PR [1, 6]: 48 (73) n (%)
CR [1, 7]: 6 (5) n (%)
PR [1, 7]: 93 (71) n (%)
inhibition of BCRP (BCRP): inhibits
